Laboratory results reported in patent US20260274798A1, “PENTAMIDINE ANALOGUE POLYMORPHS, FORMULATIONS, AND METHODS THEREOF” (AURANSA INC., priority 2023, published 2026).
“Also recorded” adds a separate entry of the source.

Key:
Type in all cases: physicochemical
[1] = Variable humidity X-ray powder diffraction (VH-XRPD); details: 30° C.
Experimental: XRPD analysis was carried out on a Philips X'Pert Pro Multipurpose diffractometer equipped with a humidity chamber. The samples were scanned between 4 and 36 °2θ using Cu K radiation (α1=1.54060 A; α2=1.54443 A; β=1.39225 A; α1:α2 ratio=0.5) running in Bragg-Brentano geometry (step size 0.008 °2θ) using 40 kV/40 mA generator settings. Measurements were performed at 30° C. during the humidity profile described below: • Initial scan at 40% RH • Humidity increased to 90% RH for 105 minutes (scan after 5 and 105 minutes) • Humidity decreased to 40% RH for 10 minutes (scan after 5 minutes) • Humidity decreased to 5% RH for 60 minutes (scan taken after 60 minutes) • Humidity decreased to 0% RH for 17 hours (scan taken after 17 hours) • Humidity increased to 40% RH for 60 minutes (scan taken at 30 and 60 minutes) • Humidity increased to 60% RH for 105 minutes (scan taken at 5 and 105 minutes) • Humidity increased to 80% RH for 60 minutes (scan taken at 5 and 55 minutes)

[2] = Dynamic vapour sorption (DVS) with post-DVS XRPD; details: 25° C.
Experimental: Approximately, 10-20 mg of sample was placed into a mesh vapour sorption balance pan and loaded into a DVS Intrinsic dynamic vapour sorption balance by Surface Measurement Systems. The sample was subjected to a ramping profile from 40-90% relative humidity (RH) at 10% increments, maintaining the sample at each step until a stable weight had been achieved (dm/dt 0.004%, minimum step length 30 minutes, maximum step length 500 minutes) at 25° C. After completion of the sorption cycle, the sample was dried using the same procedure to 0% RH and then a second sorption cycle back to 40% RH. Two cycles were performed. The weight change during the sorption/desorption cycles were plotted, allowing for the hygroscopic nature of the sample to be determined. XRPD analysis was then carried out on any solid retained.

[3] = 7 Day Stability Assessment (XRPD form and HPLC purity after storage); details: diacetate; for one-week stability: form by XRPD: 1 week (Form 1: 2 and 7 days)
Experimental: (§1) 25.6 mL of 2-propanol was added to the lyophilized Compound A diacetate salt to form a slurry. The slurry was then temperature cycled between ambient and 40° C. in 4 hour cycles with agitation for ca. 24 hours. The slurry was then filtered and the isolated solids collected into a scintillation vial. A subsample was analyzed by XRPD and the vial was left uncapped to allow the solids to […] at ambient for ca. 24 hours. The material was then re-analyzed by XRPD post-drying and fully characterized using the following techniques: TG/DSC, DSC, DVS with post-DVS XRPD analysis, PLM, FT-IR, ^1H NMR, Purity by HPLC, TG/DSC with post TG/DSC XRPD analysis, and 7 Day Stability Assessment (ca. 10 mg of the material was stored at 40° C./75% RH. 80° C. and ambient light and humidity for 1 week. The solids were then analyzed by XRPD and purity obtained by HPLC). Thermodynamic solubility in water and a pH 7.4 phosphate buffer (The appropriate media was added in 100 μL aliquots to ca. 20 mg of the material to form a slurry. The samples were then sealed and agitated at ambient for ca. 24 hours before being centrifuge filtered. The isolated solids were analyzed by XRPD and the concentration of the mother liquors determined by HPLC).

[4] = Thermodynamic solubility in water and a pH 7.4 phosphate buffer; details: slurry agitated at ambient ca. 24 hours, HPLC, diacetate
Experimental: as §1
The material appears highly insoluble in the phosphate buffer with all Forms having a solubility of 0.3 mg/mL except from Form 2 which has a solubility of 0.2 mg/mL.

form by VH-XRPD ([1]; 90% RH): convert to Form 2
form by VH-XRPD ([1]; drying at 0% RH): becomes poorly crystalline
mass uptake at 90% RH ([2]; DVS, 90% RH, diacetate): 8%
hygroscopicity by DVS ([2]; DVS, diacetate): hygroscopic
weight loss on dehydration during DVS ([2]; below 10% RH): 7.3 wt. %
weight increase on form change during DVS ([2]; first sorption cycle at 80% RH): 5.2 wt. %
one-week stability: form by XRPD ([3]; 40° C./75% RH): remained unchanged by XRPD
one-week stability: form by XRPD ([3]; 80° C.): convert to Form 1
one-week stability: form by XRPD ([3]; ambient temperature and humidity): remained unchanged by XRPD
1 Week Stability ([3]; form by XRPD after storage at 40° C./75% RH, ambient or 80° C.): Converts to pattern 1 at 80 °C
solubility ([4]; Water): 44.0 mg/mL
solubility ([4]; pH 7.4 Phosphate Buffer): 0.3 mg/mL
SMILES: CC(=O)O.CC(=O)O.N=C(N)c1ccc(OCCCCCOc2ccc(C(=N)N)nc2)cc1 [Form 9, 5-((5-(4-carbamimidoylphenoxy)pentyl)oxy)picolinimidamide diacetate]
form of recovered solid by post-DVS XRPD ([2]; after DVS cycles, diacetate): mixture of phases with peaks matching Form 9 and new peaks
form change during DVS ([2]; first sorption cycle at 80% RH, diacetate): form change to Form 2; also recorded: convert to Form 2
